# Assay results as given in patent US11040035B2, “3-oxo-2,6-diphenyl-2,3-dihydropyridazine-4-carboxamides” (BAYER PHARMA AKTIENGESELLSCHAFT, priority 2016, dated 2021).
# Where two headings read alike, the source gives them in different places.
# Tests used:
# AHR [1] = target: T1, AHR (Homo sapiens, UniProt P35869); experiment: In vitro assay 1: antagonism in human cell line (transactivation assay, kynurenic acid prestimulated); settings: Assay 1: AHR-luc Hum Antagonism IC50 [M], 150 μM kynurenic acid, 20 hours, firefly luciferase
# T1 sequence (P35869 11-848): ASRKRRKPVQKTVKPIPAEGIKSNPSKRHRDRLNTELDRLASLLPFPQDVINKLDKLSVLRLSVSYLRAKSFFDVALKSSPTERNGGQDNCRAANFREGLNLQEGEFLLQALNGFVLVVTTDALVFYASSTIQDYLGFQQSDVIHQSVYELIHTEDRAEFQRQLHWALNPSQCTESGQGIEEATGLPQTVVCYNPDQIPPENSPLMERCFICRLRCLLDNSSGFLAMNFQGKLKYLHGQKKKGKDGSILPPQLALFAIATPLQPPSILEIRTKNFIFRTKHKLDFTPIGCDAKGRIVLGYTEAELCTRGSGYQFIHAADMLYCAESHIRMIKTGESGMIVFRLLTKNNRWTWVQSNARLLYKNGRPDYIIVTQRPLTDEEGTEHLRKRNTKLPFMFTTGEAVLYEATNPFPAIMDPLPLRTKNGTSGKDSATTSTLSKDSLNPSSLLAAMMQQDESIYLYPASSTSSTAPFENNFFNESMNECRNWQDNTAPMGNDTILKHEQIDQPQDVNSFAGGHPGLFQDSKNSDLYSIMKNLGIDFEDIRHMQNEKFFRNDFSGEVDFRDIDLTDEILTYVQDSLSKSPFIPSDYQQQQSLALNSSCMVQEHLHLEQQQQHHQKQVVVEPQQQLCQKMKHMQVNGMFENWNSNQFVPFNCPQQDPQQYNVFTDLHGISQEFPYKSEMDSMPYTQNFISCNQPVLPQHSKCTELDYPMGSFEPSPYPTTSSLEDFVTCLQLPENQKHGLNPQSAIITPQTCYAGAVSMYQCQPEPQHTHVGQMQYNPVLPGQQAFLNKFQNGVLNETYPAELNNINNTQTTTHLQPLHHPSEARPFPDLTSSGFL
# AHR [2] = target: T1, AHR; settings: 20 h
# [3] = test system: AHR-regulated gene CYP1A1; experiment: In vitro assay 3: AHR-regulated CYP1A1 expression in human cell line (U937, qPCR); settings: Homo sapiens, U-937, 6 h, read-out: Assay 3: Hum CYP1A1 Antagonism IC50 [M], U937 cells, 200 μM KA, 6 hours, qPCR
# AHR [4] = target: T1, AHR; experiment: In vitro assay 2: agonism in human cell line (transactivation assay)
# [5] = test system: TNFa production by LPS-stimulated human monocytes; experiment: In vitro assay 4: rescue of TNFa production from human primary monocytes; format: cell-based; settings: Homo sapiens, Monocyte, 18 h, human monocytes, 10 ng/mL LPS + 200 μM KA, 18 hours; highest percent TNFa rescue relative to highest rescue with GNF-351; one value per donor; read-out: Individual Donors % rescue TNFa normalised to ref cmpd
# Method: In Vitro Assay 4: Rescue of TNFa Production from Human Primary Monocytes
# The ability of the substances to enhance immune cell activity was determined. The substances were tested for their capacity to reverse KA-induced inhibition of TNFa production by LPS-stimulated human monocytes. Human monocytes were purified by negative selection from donor PBMCs using Miltenyi beads and seeded at 2×10^5 cells/well in complete growth medium (RPMI 1640, 10% FCS). Monocytes were incubated with 10 ng/mL LPS (0127:68, #L4516, Sigma) and 200 μM KA (#3375, Sigma) and substances were added at concentrations of 1 μM, 0.3 μM and 0.1 μM and cultured for 18 hours. LPS alone served as the positive control. TNFa production in the supernatant was measured by Meso Scale Discovery immunassay and the ability of the substances to rescue TNFa production was calculated as a percentage of LPS stimulation and KA-induced inhibition and normalized to the donor-specific response with the reference AHR antagonist compound GNF-351 (Smith et al., J Pharmacol Exp Ther, 2011, 338(1):318-27).
# CT26 tumor cells = experiment: In vivo assay: efficacy of example compound and PD-1-L1 axis antagonist in CT26 tumor model; settings: female Balb/c mice, CT26 s.c.; example 23 30 mg/kg BID p.o.; aPD-L1 (TPP-3911) 10 mg/kg q3d i.p.; treatment from day 5
# Source text: In Vivo Assay: Efficacy of Compositions Comprising an Example Compound and a PD-1-L1 Axis Antagonist
# Animals were ordered from Charles River Sulzfeld, Germany and assigned to the study at the age of 8 weeks. Animal husbandry, feeding and health conditions are according to animal welfare guidelines. CT26 cells (aquired from ATCC) were cultivated with RPMI 1640 with 10% FCS and splitted at least 3 times before inoculation. Female Balb/c mice were inoculated with 500.000 CT26 tumor cells in 50% medium/50% matrigel subcutaneously in the flank. After 4 days the animals were randomized and therapeutic treatment started on day 5.
# The anti-PDL1 antibody is a chimera of the variable domain of atezolizumab with murine IgG1 CH1, 2 and 3 domains.
# Tumor size was measured using calipers determining length (a) and width (b). Tumor volume was calculated according to:
# Significance of monotherapies and combination treatment was calculated versus control group as determined by 2-Way ANOVA analysis.
# After 4 days the animals were randomized and therapeutic treatment started on day 5. […] Significance of monotherapies and combination treatment was calculated vs. control group as determined by 2-Way ANOVA analysis.
# [6] = read-out: Assay 2: AHR-luc Hum Agonism IC50, no kynurenic acid, 20 hours, firefly luciferase
# [7] = Assay 2: AHR-luc Hum Agonism IC50 [M], no kynurenic acid, 20 hours, firefly luciferase
SMILES,IC50 (AHR [1]) [M],IC50 (AHR [2]) [nM],IC50 [3] [M],IC50 (AHR [4]; [6]) [M],Emax [5] [%],"T/C, ratio of tumor size under treatment versus tumor size in the control group (CT26 tumor cells)",IC50 (AHR [4]; [7]) [M]
"Cc1ccc(-c2cc(C(=O)NCC(O)C(F)(F)F)c(=O)n(-c3cc(F)cc(F)c3)n2)cc1 (single isomer, unassigned) [Example 54, 2-(3,5-Difluorophenyl)-6-(4-methylphenyl)-3-oxo-N-(3,3,3-trifluoro-2-hydroxypropyl)-2,3-dihydropyridazine-4-carboxamide]",4.07e-08,> 20000,,,,,
"CC(C)(O)C(NC(=O)c1cc(-c2ccc(Cl)cc2)nn(-c2cccc(F)c2)c1=O)C(F)(F)F (single isomer, unassigned) [Example 279]",6.07e-09,,2.89e-09,> 2e-05,53,,
"O=C(NC(CO)C(F)(F)F)c1cc(-c2ccc(Cl)cc2)nn(-c2cccc(F)c2)c1=O (single isomer, unassigned; (+)) [Example 99, (+)-6-(4-Chlorophenyl)-2-(3-fluorophenyl)-3-oxo-N-(1,1,1-trifluoro-3-hydroxypropan-2-yl)-2,3-dihydropyridazine-4-carboxamide]",1.04e-08,,3.77e-09,> 2e-05,101,,
"C[C@@H](CO)NC(=O)c1cc(-c2ccc(Cl)cc2)nn(-c2cccc(F)c2)c1=O [Example 23, 6-(4-Chlorophenyl)-2-(3-fluorophenyl)-N-[(2S)-1-hydroxypropan-2-yl]-3-oxo-2,3-dihydropyridazine-4-carboxamide]",3.99e-08,,7.07e-08,,,0.75,> 2e-05
"O=C(NCC1(O)CCCCC1)c1cc(-c2ccc(Cl)cc2)nn(-c2cccc(F)c2)c1=O [Example 129, 6-(4-Chlorophenyl)-2-(3-fluorophenyl)-N-[(1-hydroxycyclohexyl)methyl]-3-oxo-2,3-dihydropyridazine-4-carboxamide]",4.52e-07,,6e-07,,30,,> 2e-05
"CC[C@@H](CO)NC(=O)c1cc(-c2ccc(Cl)c(F)c2)nn(-c2cccc(F)c2)c1=O [Example 288, 6-(4-Chloro-3-fluorophenyl)-2-(3-fluorophenyl)-N-[(2S)-1-hydroxybutan-2-yl]-3-oxo-2,3-dihydropyridazine-4-carboxamide]",3.97e-08,,8.05e-08,,82,,> 2e-05
"C[C@@H](CO)NC(=O)c1cc(-c2ccc(Cl)c(Cl)c2)nn(-c2cccc(F)c2)c1=O [Example 300, 6-(3,4-Dichlorophenyl)-2-(3-fluorophenyl)-N-[(2S)-1-hydroxypropan-2-yl]-3-oxo-2,3-dihydropyridazine-4-carboxamide]",1.19e-07,,1.07e-07,,122,,> 2e-05
"CC(C)[C@@H](CO)NC(=O)c1cc(-c2ccc(Cl)c(Cl)c2)nn(-c2cccc(F)c2)c1=O [Example 301, 6-(3,4-Dichlorophenyl)-2-(3-fluorophenyl)-N-[(2S)-1-hydroxy-3-methylbutan-2-yl]-3-oxo-2,3-dihydropyridazine-4-carboxamide]",2.73e-08,,8.1e-08,,112,,> 2e-05
